Assay results taken from PMC12667295, “A surrogate barrier model for high-throughput blood-brain barrier permeability prediction: integrating LLC-PK1-MOCK/MDR1 Cells and lysosomal trapping correction” (Drug Delivery, 2025).
Where two headings read alike, the source gives them in different places.

Key:
in vitro [1] = assay: in vitro
Description: (§1) Stocks (10 mM) of test compounds were diluted to 5 μM with plasma or tissue homogenate and dialyzed at 37 °C for 6 hours in a shaking incubator. After incubation aliquots of both plasma or tissue homogenate and buffer from the device were taken and added to equal volumes of blank buffer and plasma or tissue homogenate respectively. Samples were then diluted in acetonitrile containing an internal standard prior to centrifugation and analysis of the supernatants by LC-MS/MS. The fu, plasma was calculated using Equation 1:(1) fu,plasma=Concbuffer chamber/Concsample chamber
Rat fraction unbound in brain (fu, brain) was determined as the ratio of concentration in buffer to that in brain.
(§2) Unbound fractions of test drugs in plasma (fu,plasma) and brain tissue (fu,brain). For compounds with existing rat plasma or brain protein-binding data from literature or internal studies, values were directly adopted.

[2] = cited from earlier work
in vitro [3] = settings: pig; for recovery at 2 h, 2 µM: pH 7.4
Description: (§3) Cells were passaged at 80−90% confluence (every 2−3 days) using trypsin-EDTA solution. […] The culture medium was replaced every other day, including 200 µL culture medium in the apical and 850 µL cell culture medium in the basolateral side. LLC-PK1 MOCK cells were used at passages of 3−30. LLC-PK1-MDR1 cells were cultured and passaged in the same manner as LLC-PK1 cells except at the density of 1 × 10^4 cells per well. LLC-PK1-MDR1 cells were used at passages of 3−25. For LLC-PK1 MOCK cells and LLC-PK1-MDR1 cells, the experiments were performed on the 4th and 7th day after seeding.
(§4) Samples were collected from the donor well at the start of the incubation (50 µL) as C0, and from the donor and receiver wells at the end of the incubation (50 µL). All samples were stored at - 40 °C for LC-MS/MS analysis.
(§5) Bidirectional transport experiments. […] The transwell experiments were conducted following above-mentioned procedure. […] When the recovery rate of the tested drug is below 80%, the possibility of intracellular accumulation should be considered. The polycarbonate (PC) membrane where cells are grown should be carefully peeled off from the cell culture medium and placed in 100 µL of HBSS buffer solution. […] The process was carried out on ice to prevent heat-induced degradation, applying a power in the range of 300 W for a total duration of 20 minutes. Thereafter, a quantitative analysis of the intracellular drug was conducted, and the drug recovery rate was recalculated based on this analysis.
(§6) The apparent permeability coefficient (Papp, cm/s) was calculated for each transport direction, A-B and B-A, using the following equation: Papp=dQ/dt×1/A×C0 where dQ/dt is the permeation rate (µmol/s), A is the surface area of the insert (0.33 cm^2, Corning), and C0 is the initial donor concentration (µM).
(§7) The efflux ratio (ER) is calculated as the ratio of Papp (B-A)/Papp (A-B). Recovery=TRcumrf+Cdf×VD/Cdi×VD×100% Where TRcumrf is the cumulative transported mass in the receiver chamber at the end of the incubation (nmol), Cdf is the concentration of the drug in the donor chamber at the end of the incubation (μM), VD is the volume of the donor chamber (mL), and Cdi is the initial concentration of the drug in the donor chamber (μM).
(§8) The method of the bidirectional transport experiment was the same as before.

[4] = Bidirectional transport across LLC-PK1 MOCK monolayer (Transwell); settings: pig; for recovery at 2 h, 2 µM: LLC-PK1 MOCK cell monolayer (Transwell);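 on all read-outs here: compound quantified by LC-MS/MS in donor and receiver wells, efflux ratio as B-A over A-B Papp, recovery relative to initial donor amount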
Description: as §3, §4, §5, §6, §7, §8

in vivo = settings: rat
Excerpt: In vivo unbound brain distribution data (Kp,uu,Brain) for 16 drugs and total brain distribution data (Kp,Brain) for 16 drugs was acquired from literature. […] For each tested compound, fifteen rats were randomly divided into five groups of three rats each. […] The time of execution of the rats by CO2 inhalation after administration was optimized according to the in vivo elimination rate to achieve five concentrations of different time points. After the rats were euthanized, cardiac puncture was performed immediately to remove as much whole blood as possible (~7 ml) from the systemic circulation (Quantitatively aliquot 0.2 ml of whole blood for the determination of drug concentration in plasma). Afterwards, the brain tissue was collected immediately and rinsed repeatedly with ice-cold saline 3 times. Then, the surface saline was blotted dry with clean filter paper to remove as much residual drug in the blood vessels as possible. Plasma samples were prepared by centrifugation of the blood samples at 2,500 g for 10 minutes at 4 °C. All brain samples were homogenized by adding 4-fold volume water. All samples were stored at -40 °C before LC-MS/MS analysis. […] The brain tissue partition coefficient (Kp, brain) and brain-to-plasma unbound drug partition ratio (Kp,uu, brain) are calculated according to the following formulas, respectively: Kp,brain=AUC(0−∞,brain)/AUC(0−∞,plasma)Kp,uu,brain=Kp,brain×(fu,tissue/fu,plasma)
Free brain-to-plasma distribution coefficients (Kp,uu,brain) of 41 drugs. Brain distribution coefficients (Kp,uu,brain) were calculated for 41 drugs. […] Plasma and brain concentration-time profiles were generated, and AUC(0-t) values for both matrices were calculated using WinNolin 8.1. Kp,brain was derived as the ratio of brain-to-plasma AUC(0-t).
Kp,uu,brain values were computed by normalizing Kp,brain to unbound fractions (fu,plasma and fu,brain).

P-gp (human MDR1) [5] = assay: in vitro; settings: pig, LLC-PK1, pH 7.4
Description: (§9) The overexpression and functional activity of P-glycoprotein (P-gp) in the LLC-PK1-MDR1 cells were rigorously validated through multiple methods.
as §3
(§10) Monitoring permeability of positive control drugs. […] Samples were collected from the donor well at the start of the incubation (50 µL) as C0, and from the donor and receiver wells at the end of the incubation (50 µL). All samples were stored at - 40 °C for LC-MS/MS analysis.
as §5, §6, §7, §8

P-gp (human MDR1) [6] = assay: Bidirectional transport across LLC-PK1-MDR1 monolayer stably expressing human MDR1 (P-gp) (Transwell); settings: pig;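 further: 2 h incubation at 37 °C, receiver HBSS with 10 mM Hepes plus 1% BSA, LC-MS/MS of donor and receiver, recovery as receiver plus donor amount over initial donor amount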
Description: as §9, §3, §10, §5, §6, §7, §8

[7] = cited from earlier work; remark: listed apart in the source
in vitro [8] = assay: in vitro; remark: listed apart in the source
Description: as §1, §2

[9] = footnote b, species not stated, ref https://go.drugbank.com
[10] = LLC-PK1 MOCK cell monolayer (Transwell)
[11] = LLC-PK1, pH 7.4, Papp A-B, LLC-PK1 MOCK, 2 µM, 2 h, mean ± s, n = 3, BLQ = below 2 nM
[12] = LLC-PK1, pH 7.4, Papp A-B, LLC-PK1-MDR1, 2 µM, 2 h, mean ± s, n = 3

Row | Structure (SMILES) | fraction unbound at 6 h, 5 µM (in vitro [1]; rat, brain homogenate) | recovery at 2 h, 2 µM (in vitro [3]; [10]) | Papp B→A at 2 h, 2 µM ([4]; LLC-PK1, pH 7.4) | Kp (in vivo; SD, iv, 1 mg/kg, Kp, Brain) | recovery at 2 h, 2 µM (P-gp (human MDR1) [5]) | Papp A→B at 2 h, 2 µM (P-gp (human MDR1) [6]; LLC-PK1, pH 7.4) | Papp B→A at 2 h, 2 µM (P-gp (human MDR1) [6]; LLC-PK1, pH 7.4) | fraction unbound at 6 h, 5 µM (in vitro [8]; rat, plasma) | Papp A→B at 2 h, 2 µM [4, 11] | efflux ratio at 2 h, 2 µM ([4]; LLC-PK1, pH 7.4) | efflux ratio at 2 h, 2 µM (P-gp (human MDR1) [6]; LLC-PK1, pH 7.4) | Kp uu (in vivo; SD, iv, 1 mg/kg) | other results
1 | COc1cc([C@@H]2c3cc4c(cc3[C@@H](O[C@@H]3O[C@@H]5CO[C@@H](C)O[C@H]5[C@H](O)[C@H]3O)[C@H]3COC(=O)[C@H]23)OCO4)cc(OC)c1O [Etoposide] | < 0.01 | 106 ± 0.11% | 0.16 ± 0.02 ×10⁻⁶ cm/s | 0.025 | 100 ± 2.47% | 0.75 ± 0.1 ×10⁻⁶ cm/s | 3.68 ± 0.22 ×10⁻⁶ cm/s |  |  |  |  |  | Protein binding in plasma [2, 9]: 97.0^b %; Kp (in vivo; SD, iv, 1 mg/kg, Kp,uu,Brian): 0.008
2 | COc1ccc2[nH]c([S+]([O-])Cc3ncc(C)c(OC)c3C)nc2c1 (stereo not shown) [Omeprazole] | 0.321 |  | 28.9 ± 1.39 ×10⁻⁶ cm/s |  | 113 ± 1.46% |  | 41.5 ± 2.92 ×10⁻⁶ cm/s | 0.045 | 34.2 ± 0.55 ×10⁻⁶ cm/s |  |  |  | Kp, Brain ([7]; ref Cheng et al. [2002]): 0.15; Kp uu (in vivo): 1.09; Papp A→B at 2 h, 2 µM (P-gp (human MDR1) [6]; [12]): 25.4 ± 0.66 ×10⁻⁶ cm/s
3 | COc1ccc2c(c1)[C@]13CCCC[C@@H]1[C@H](C2)N(C)CC3 [Dextromethorphan] |  |  | 25.9 ± 0.91 ×10⁻⁶ cm/s |  | 93.6 ± 6.54% | 18.8 ± 0.12 ×10⁻⁶ cm/s | 21.9 ± 3.18 ×10⁻⁶ cm/s |  |  | 0.73 | 1.17 |  | fraction unbound at 6 h, 5 µM (in vitro [1]): 0.033; fraction unbound at 6 h, 5 µM (in vitro [8]): 0.35; Papp A→B at 2 h, 2 µM ([4]; LLC-PK1, pH 7.4): 35.5 ± 2.09 ×10⁻⁶ cm/s; Kp (in vivo; SD, in vivo, iv, 1 mg/kg): 11.5; Kp uu (in vivo; SD, in vivo, iv, 1 mg/kg): 0.825
4 | Cc1ncc2n1-c1ccc(Cl)cc1C(c1ccccc1F)=NC2 [Midazolam] |  |  | 31.6 ± 5.1 ×10⁻⁶ cm/s |  | 100 ± 3% | 29.5 ± 1 ×10⁻⁶ cm/s | 27 ± 2.23 ×10⁻⁶ cm/s |  |  | 1.32 | 0.91 |  | Kp, Brain ([7]; footnote a, ref Internal data): 2.44^a; fraction unbound at 6 h, 5 µM (in vitro [1]): 0.022; Protein binding in plasma ([2]; footnote a, ref Internal data): 97.0^a %; recovery at 2 h, 2 µM (in vitro [3]): 99.6 ± 1.73%; Papp A→B at 2 h, 2 µM ([4]; LLC-PK1, pH 7.4): 24.7 ± 0.41 ×10⁻⁶ cm/s; Kp uu (in vivo; in vivo): 1.42
5 | COCCOC(=O)C1=C(C)NC(C)=C(C(=O)OC(C)C)C1c1cccc([N+](=O)[O-])c1 (stereo not shown) [Nimodipine] | < 0.01 | 109 ± 7.08% | 46.2 ± 1.79 ×10⁻⁶ cm/s |  | 114 ± 5.22% | 32.2 ± 1.83 ×10⁻⁶ cm/s | 44.5 ± 5.11 ×10⁻⁶ cm/s |  | 33.7 ± 2.08 ×10⁻⁶ cm/s | 1.37 | 1.39 |  | Kp, Brain ([7]; ref Li [2020]): 2.25; Protein binding in plasma [2, 9]: 95.0^b %; Kp uu (in vivo): < 0.451
6 | CC[C@]1(O)C[C@@H]2CN(CCc3c([nH]c4ccccc34)[C@@](C(=O)OC)(c3cc4c(cc3OC)N(C)[C@H]3[C@@](O)(C(=O)OC)[C@H](OC(C)=O)[C@]5(CC)C=CCN6CC[C@]43[C@@H]65)C2)C1 [Vinblastine] | < 0.01 | 86.5 ± 1.69% | 4.16 ± 0.32 ×10⁻⁶ cm/s | 0.528 | 103 ± 9.03% | 2.84 ± 0.27 ×10⁻⁶ cm/s | 20.4 ± 1.81 ×10⁻⁶ cm/s | 0.06 | 4.33 ± 0.21 ×10⁻⁶ cm/s | 0.96 | 7.2 | < 0.088 | 
7 | CN/C(=N/CCSCc1nc[nH]c1C)NC#N [Cimetidine] | 0.655 | 96.9 ± 13.3% | 0.28 ± 0.07 ×10⁻⁶ cm/s | 0.007 | 87.4 ± 9.65% |  | 33.9 ± 4.3 ×10⁻⁶ cm/s | 0.722 | 0.69 ± 0.07 ×10⁻⁶ cm/s |  |  | 0.008 | Papp A→B at 2 h, 2 µM (P-gp (human MDR1) [6]; [12]): 1.32 ± 0.31 ×10⁻⁶ cm/s
8 | NC(=O)C[S+]([O-])C(c1ccccc1)c1ccccc1 (stereo not shown) [Modafinil] |  |  | 15.6 ± 0.22 ×10⁻⁶ cm/s |  | 107 ± 3.4% | 22.7 ± 0.45 ×10⁻⁶ cm/s | 23.9 ± 0.91 ×10⁻⁶ cm/s |  |  | 0.78 | 1.05 |  | fraction unbound at 6 h, 5 µM (in vitro [1]): 0.308; Protein binding in plasma [2, 9]: 60^b %; recovery at 2 h, 2 µM (in vitro [3]): 106 ± 2.03%; Papp A→B at 2 h, 2 µM ([4]; LLC-PK1, pH 7.4): 20.2 ± 0.98 ×10⁻⁶ cm/s; Kp (in vivo; SD, in vivo, iv, 1 mg/kg): 0.71; Kp uu (in vivo; SD, in vivo, iv, 1 mg/kg): 0.547
9 | Cc1cc(=O)n(-c2ccccc2)n1C [Antipyrine] | 0.809 |  | 23.6 ± 1.43 ×10⁻⁶ cm/s | 0.755 | 113 ± 1.41% | 30.9 ± 1.46 ×10⁻⁶ cm/s | 28.9 ± 1.75 ×10⁻⁶ cm/s |  | 31.4 ± 3.13 ×10⁻⁶ cm/s |  |  | 0.72 | Protein binding in plasma (in vitro [8]; rat, 6 h, 5 µM): 15.0 ± 5.22%; recovery at 2 h, 2 µM ([4]; pH 7.4, Recovery A-B, LLC-PK1 MOCK, 2 µM, 2 h, n = 3): 116 ± 7.41%; recovery at 2 h, 2 µM ([4]; pH 7.4, Recovery B-A, LLC-PK1 MOCK, 2 µM, 2 h, n = 3): 95.2 ± 2.32%
10 | CCOc1ccc(NC(C)=O)cc1 [Phenacetin] | 0.419 |  |  | 0.763 |  | 36.6 ± 2.48 ×10⁻⁶ cm/s | 29 ± 1.19 ×10⁻⁶ cm/s | 0.416 | 35.2 ± 0.08 ×10⁻⁶ cm/s |  |  | 0.768 | Papp B→A at 2 h, 2 µM (in vitro [3]; LLC-PK1, pH 7.4): 27.2 ± 1.32 ×10⁻⁶ cm/s
11 | Cn1c(=O)c2c(ncn2C)n(C)c1=O [Caffeine] | 0.719 | 121 ± 2.48% | 34.1 ± 1.49 ×10⁻⁶ cm/s |  |  |  | 33.3 ± 1.49 ×10⁻⁶ cm/s | 0.772 | 34 ± 1.22 ×10⁻⁶ cm/s |  |  |  | Kp, Brain ([7]; ref Bohnert [2016]): 0.618; Kp uu (in vivo): 0.576; Papp A→B at 2 h, 2 µM (P-gp (human MDR1) [6]; [12]): 36.4 ± 1.42 ×10⁻⁶ cm/s
